Article PMC10987480, “Biological and mutational analyses of CXCR4–antagonist interactions and design of new antagonistic analogs” (Bioscience Reports, 2023)
Positions of bridges follow the written chain, without caps; N, C: chain ends. Non-standard residues stand in square brackets, D forms with d. Residues, ends and D or L forms follow the SMILES beside them. Chains are numbered I, II in the order given. No end group written: not given here.

Key:
CXCR4 I259A = target: T1, CXCR4 I259A (Homo sapiens, UniProt P61073, I259A); experiment: Competitive binding to CXCR4 mutant I259A (12G5, CHO cells); parameters: key to the marks not given beside the values; conditions: TM6, class of reduction vs wild-type CXCR4, 12G5 competition, averages of at least three independent experiments
T1 construct: expressed in transfected cells
T1 sequence (P61073 whole entry I259A): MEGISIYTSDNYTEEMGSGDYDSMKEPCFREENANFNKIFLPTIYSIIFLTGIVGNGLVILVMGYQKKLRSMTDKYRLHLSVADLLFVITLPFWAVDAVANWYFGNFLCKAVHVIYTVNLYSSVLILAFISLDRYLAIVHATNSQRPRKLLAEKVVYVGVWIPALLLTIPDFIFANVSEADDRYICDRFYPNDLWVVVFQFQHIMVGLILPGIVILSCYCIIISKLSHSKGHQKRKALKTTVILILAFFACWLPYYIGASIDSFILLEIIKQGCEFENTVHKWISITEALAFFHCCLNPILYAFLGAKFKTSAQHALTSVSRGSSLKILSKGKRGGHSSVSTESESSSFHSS
Method: (§1) Plasmid pcDNA3-CXCR4 and mutated pcDNA3-CXCR4 were extracted and transfected into CHO cells using Lipofectamine 2000 according to the manufacturer’s guidelines. The selective medium containing G418 at a concentration of 1.2 mg/ml was applied to isolate stably transfected cells. CHO cells expressing wild-type CXCR4 and mutant CXCR4 were obtained using fluorescence-activated cell sorting (FACS).
(§2) All of the CXCR4 mutants were prepared using PCR technology. Briefly, pairs of asymmetrical primers containing the desired amino acid mutations (Supplementary Tables S1 and S2), each complementary to opposite strands of the pcDNA3–CXCR4, were designed for amplification by Q5® High-Fidelity DNA polymerase and the generation of mutated constructs. The methylated pcDNA3–CXCR4 templates were digested by DpnI. The mutated pcDNA3–CXCR4 was transformed into competent E. coli TOP10 for long-term storage and amplification.
(§3) The procedure for the CXCR4 competitive binding experiments was published previously. Briefly, CXCR4 antibody 12G5 (250 ng/ml) was incubated with 5 × 10^5 cells and varying concentrations of unlabeled compounds in a final volume of 100 μl of assay buffer (PBS with 0.5% BSA and 0.05% NaN3) in 96-well plates for 40 min on ice, after being washed with assay buffer once. The cells were incubated with FITC-conjugated second antibody IgG for 30 min on ice, then washed with assay buffer three times. The fluorescence intensity was measured for excitation at 485 nm and emission at 535 nm using multimode plate reader (PerkinElmer). The IC50 values were calculated using graphpad Prism 7. Experiments were performed at least three times.

CXCR4 E288A = target: T2, CXCR4 E288A (Homo sapiens, UniProt P61073, E288A); experiment: Competitive binding to CXCR4 mutant E288A (12G5, CHO cells); conditions: TM7, class of reduction vs wild-type CXCR4, 12G5 competition, averages of at least three independent experiments
T2 construct: expressed in transfected cells
T2 sequence (P61073 whole entry E288A): as the sequence (P61073 whole entry I259A) above, with A259I, E288A counted along it
Method: as §1, §2, §3

CXCR4 [1] = target: CXCR4 (Homo sapiens, UniProt P61073); experiment: Competitive CXCR4 binding assay (12G5 antibody probe), wild-type CXCR4 transfected CHO cells; parameters: expressed in transfected cells; Competitive receptor binding activity, wild-type CXCR4 (WT): key to the marks not given beside the values; conditions: class relative to wild-type; 12G5 competition, stably transfected CHO cells; averages of at least three independent experiments
CXCR4 (Homo sapiens, UniProt P61073), sequence (P61073 whole entry): as the sequence (P61073 whole entry I259A) above, with A259I counted along it
Method: The CXCR4-specific antibody, 12G5 was used as a probe for the competitive CXCR4 binding assay to evaluate the binding activity of CXCR4 antagonists.
Figure 1 Competitive CXCR4 binding curves of eleven CXCR4 antagonists The CXCR4 transfected CHO cells were incubated with different concentrations of antagonists and 250 ng/ml 12G5 antibody. The CXCR4-binding 12G5 antibody was recognized by FITC-conjugated anti-IgG second antibody. The cells treated with only second antibody were used as a negative control (0%) while cells treated with both 12G5 antibody and second antibody were used as a positive control (100%). Cells treated with CXCR4 antagonists were calculated in percentage relative to the positive and negative controls. The data were averages of at least three independent experiments and shown as mean ± standard error of the mean (S.E.M.).
as §3

CXCR4 Y45A = target: T3, CXCR4 Y45A (Homo sapiens, UniProt P61073, Y45A); experiment: Competitive binding to CXCR4 mutant Y45A (12G5, CHO cells); conditions: TM1, class of reduction vs wild-type CXCR4, 12G5 competition, averages of at least three independent experiments
T3 construct: expressed in transfected cells
T3 sequence (P61073 whole entry Y45A): as the sequence (P61073 whole entry I259A) above, with Y45A, A259I counted along it
Method: as §1, §2, §3

CXCR4 R30A = target: T4, CXCR4 R30A (Homo sapiens, UniProt P61073, R30A); experiment: Competitive binding to CXCR4 mutant R30A (12G5, CHO cells); parameters: key to the marks not given beside the values; conditions: TM1, class of reduction vs wild-type CXCR4, 12G5 competition, averages of at least three independent experiments
T4 construct: expressed in transfected cells
T4 sequence (P61073 whole entry R30A): as the sequence (P61073 whole entry I259A) above, with R30A, A259I counted along it
Method: as §1, §2, §3

CXCR4 E288D = target: T5, CXCR4 E288D (Homo sapiens, UniProt P61073, E288D); experiment: Competitive binding to CXCR4 mutant E288D (12G5, CHO cells); conditions: TM7, class of reduction vs wild-type CXCR4, 12G5 competition, averages of at least three independent experiments
T5 construct: expressed in transfected cells
T5 sequence (P61073 whole entry E288D): as the sequence (P61073 whole entry I259A) above, with A259I, E288D counted along it
Method: as §1, §2, §3

CXCR4 D262N = target: T6, CXCR4 D262N (Homo sapiens, UniProt P61073, D262N); experiment: Competitive binding to CXCR4 mutant D262N (12G5, CHO cells); conditions: TM6, class of reduction vs wild-type CXCR4, 12G5 competition, averages of at least three independent experiments
T6 construct: expressed in transfected cells
T6 sequence (P61073 whole entry D262N): as the sequence (P61073 whole entry I259A) above, with A259I, D262N counted along it
Method: as §1, §2, §3

CXCR4 Q200A = target: T7, CXCR4 Q200A (Homo sapiens, UniProt P61073, Q200A); experiment: Competitive binding to CXCR4 mutant Q200A (12G5, CHO cells); parameters: key to the marks not given beside the values; conditions: TM5, class of reduction vs wild-type CXCR4, 12G5 competition, averages of at least three independent experiments
T7 construct: expressed in transfected cells
T7 sequence (P61073 whole entry Q200A): as the sequence (P61073 whole entry I259A) above, with Q200A, A259I counted along it
Method: as §1, §2, §3

CXCR4 E288Q = target: T8, CXCR4 E288Q (Homo sapiens, UniProt P61073, E288Q); experiment: Competitive binding to CXCR4 mutant E288Q (12G5, CHO cells); conditions: TM7, class of reduction vs wild-type CXCR4, 12G5 competition, averages of at least three independent experiments
T8 construct: expressed in transfected cells
T8 sequence (P61073 whole entry E288Q): as the sequence (P61073 whole entry I259A) above, with A259I, E288Q counted along it
Method: as §1, §2, §3

CXCR4 T117A = target: T9, CXCR4 T117A (Homo sapiens, UniProt P61073, T117A); experiment: Competitive binding to CXCR4 mutant T117A (12G5, CHO cells); conditions: TM3, class of reduction vs wild-type CXCR4, 12G5 competition, averages of at least three independent experiments
T9 construct: expressed in transfected cells
T9 sequence (P61073 whole entry T117A): as the sequence (P61073 whole entry I259A) above, with T117A, A259I counted along it
Method: as §1, §2, §3

CXCR4 D171A = target: T10, CXCR4 D171A (Homo sapiens, UniProt P61073, D171A); experiment: Competitive binding to CXCR4 mutant D171A (12G5, CHO cells); conditions: TM4, class of reduction vs wild-type CXCR4, 12G5 competition, averages of at least three independent experiments
T10 construct: expressed in transfected cells
T10 sequence (P61073 whole entry D171A): as the sequence (P61073 whole entry I259A) above, with D171A, A259I counted along it
Method: as §1, §2, §3

CXCR4 F87A = target: T11, CXCR4 F87A (Homo sapiens, UniProt P61073, F87A); experiment: Competitive binding to CXCR4 mutant F87A (12G5, CHO cells); conditions: TM2, class of reduction vs wild-type CXCR4, 12G5 competition, averages of at least three independent experiments
T11 construct: expressed in transfected cells
T11 sequence (P61073 whole entry F87A): as the sequence (P61073 whole entry I259A) above, with F87A, A259I counted along it
Method: as §1, §2, §3

CXCR4 [2] = conditions: cited from earlier work
Excerpt: To understand the receptor–ligand recognition mechanism involving CXCR4 and its antagonists, here in this study we conducted a series of comparative analyses of the biological activities and CXCR4 binding sites of eleven known CXCR4 antagonists, including the three mentioned above, using cell-based bioassays, CXCR4 site-directed mutagenesis and computer-aided molecular modeling. These antagonists studied here were chosen from different representative structural types including both D-peptides (i.e., HC4319, DV1, DV1 dimer, and DV3) and a representative counterpart L-peptide (i.e., V1) derived ...

CXCR4 Y116A = target: T12, CXCR4 Y116A (Homo sapiens, UniProt P61073, Y116A); experiment: Competitive binding to CXCR4 mutant Y116A (12G5, CHO cells); conditions: TM3, class of reduction vs wild-type CXCR4, 12G5 competition, averages of at least three independent experiments
T12 construct: expressed in transfected cells
T12 sequence (P61073 whole entry Y116A): as the sequence (P61073 whole entry I259A) above, with Y116A, A259I counted along it
Method: as §1, §2, §3

CXCR4 W94A = target: T13, CXCR4 W94A (Homo sapiens, UniProt P61073, W94A); experiment: Competitive binding to CXCR4 mutant W94A (12G5, CHO cells); conditions: TM2, class of reduction vs wild-type CXCR4, 12G5 competition, averages of at least three independent experiments
T13 construct: expressed in transfected cells
T13 sequence (P61073 whole entry W94A): as the sequence (P61073 whole entry I259A) above, with W94A, A259I counted along it
Method: as §1, §2, §3

CXCR4 N119A = target: T14, CXCR4 N119A (Homo sapiens, UniProt P61073, N119A); experiment: Competitive binding to CXCR4 mutant N119A (12G5, CHO cells); conditions: TM3, class of reduction vs wild-type CXCR4, 12G5 competition, averages of at least three independent experiments
T14 construct: expressed in transfected cells
T14 sequence (P61073 whole entry N119A): as the sequence (P61073 whole entry I259A) above, with N119A, A259I counted along it
Method: as §1, §2, §3

| Molecule | Competitive receptor binding activity, CXCR4 I259A (CXCR4 I259A) | Competitive receptor binding activity, CXCR4 E288A (CXCR4 E288A) | Competitive receptor binding activity, wild-type CXCR4 (WT) (CXCR4 [1]) | Competitive receptor binding activity, CXCR4 Y45A (CXCR4 Y45A) | Competitive receptor binding activity, CXCR4 R30A (CXCR4 R30A) | Competitive receptor binding activity, CXCR4 E288D (CXCR4 E288D) | Competitive receptor binding activity, CXCR4 D262N (CXCR4 D262N) | Competitive receptor binding activity, CXCR4 Q200A (CXCR4 Q200A) | Competitive receptor binding activity, CXCR4 E288Q (CXCR4 E288Q) | Competitive receptor binding activity, CXCR4 T117A (CXCR4 T117A) | Competitive receptor binding activity, CXCR4 D171A (CXCR4 D171A) | Competitive receptor binding activity, CXCR4 F87A (CXCR4 F87A) | Potency (in words) (CXCR4 [2]) | Competitive receptor binding activity, CXCR4 Y116A (CXCR4 Y116A) | Competitive receptor binding activity, CXCR4 W94A (CXCR4 W94A) | Competitive receptor binding activity, CXCR4 N119A (CXCR4 N119A) |
| --- | --- | --- | --- | --- | --- | --- | --- | --- | --- | --- | --- | --- | --- | --- | --- | --- |
| CC(C)C[C@@H](N)C(=O)NCC(=O)N[C@H](C)C(=O)N[C@H](CO)C(=O)N[C@H](Cc1c[nH]c2ccccc12)C(=O)N[C@H](Cc1c[nH]cn1)C(=O)N[C@H](CCCNC(=N)N)C(=O)N1CCC[C@@H]1C(=O)N[C@H](CC(=O)O)C(=O)N[C@H](CCCCN)C(=O)NCCCC[C@@H](NC(=O)[C@H]1CCCN1C(=O)[C@@H](CC(C)C)NC(=O)[C@H]1CCCN1C(=O)[C@@H](CCCNC(=N)N)NC(=O)[C@@H](CCCCN)NC(=O)[C@@H](CCC(N)=O)NC(=O)[C@@H](Cc1ccc(O)cc1)NC(=O)CNC(=O)[C@@H](CC(C)C)NC(=O)[C@@H](CS)NC(=O)[C@@H](CS)NC(=O)[C@@H](CCCCN)NC(=O)[C@@H](CC(=O)O)NC(=O)[C@H]1CCCN1C(=O)[C@@H](CCCNC(=N)N)NC(=O)[C@@H](Cc1c[nH]cn1)NC(=O)[C@@H](Cc1c[nH]c2ccccc12)NC(=O)[C@@H](CO)NC(=O)[C@@H](C)NC(=O)CNC(=O)[C@H](N)CC(C)C)C(=O)O [HC4319] (I: H-[dL]G[dA][dS][dW][dH][dR][dP][dD][dK][dC][dC][dL]G[dY][dQ][dK][dR][dP][dL][dP][dK]-OH / II: H-[dL]G[dA][dS][dW][dH][dR][dP][dD][dK]; amide I:22-II:C; N-terminus and C-terminus assumed) | +++ | + (30–60% reduction compared with wild-type CXCR4) | +++ | + (30–60% reduction compared with wild-type CXCR4) | +++ | + (30–60% reduction compared with wild-type CXCR4) | ++ (10–29% reduction compared with wild-type CXCR4) | +++ | ++ (10–29% reduction compared with wild-type CXCR4) | +++ | +++ |  |  |  |  |  |
| NCCCCN(Cc1nc2ccccc2[nH]1)[C@H]1CCCc2cccnc21 [AMD11070] | +++ |  | +++ | ++ (10–29% reduction compared with wild-type CXCR4) | +++ |  | +++ | +++ |  | +++ | + (30–60% reduction compared with wild-type CXCR4) | + (30–60% reduction compared with wild-type CXCR4) | nanomolar potent | +++ | ++ (10–29% reduction compared with wild-type CXCR4) | +++ |
| I: [dL]G[dA][dS][dW][dH][dR][dP][dD][dK][dC][dC][dL]G[dY][dQ][dK][dR][dP][dL][dP] / II: [dL]G[dA][dS][dW][dH][dR][dP][dD][dK][dC][dC][dL]G[dY][dQ][dK][dR][dP][dL][dP] (disulfide I:11-II:11, I:12-II:12) [DV1 dimer] | +++ | + (30–60% reduction compared with wild-type CXCR4) | +++ | ++ (10–29% reduction compared with wild-type CXCR4) | +++ | ++ (10–29% reduction compared with wild-type CXCR4) | + (30–60% reduction compared with wild-type CXCR4) | +++ | + (30–60% reduction compared with wild-type CXCR4) | ++ (10–29% reduction compared with wild-type CXCR4) | ++ (10–29% reduction compared with wild-type CXCR4) | + (30–60% reduction compared with wild-type CXCR4) |  | + (30–60% reduction compared with wild-type CXCR4) | + (30–60% reduction compared with wild-type CXCR4) | + (30–60% reduction compared with wild-type CXCR4) |
